According to patent US9580444B2, “Polycyclic pyrazolinone derivative and herbicide comprising same as effective component thereof” (priority 2013, dated 2017):

Tests used:
Format in all cases: in vivo
[1] = tested on: Cyperus difformis (smallflower umbrella plant); assay: Test Example-1: herbicidal effect by a treatment before weeds are generated under submerged conditions; conditions: 500 g a.i/ha, pre-emergence treatment, about 15 days after treatment, score 0-5
Summary of the method: (§1)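 Pre-emergence, submerged paddy soil; WP/EC formulation diluted, applied to floodwater at seeding day at predetermined dose; visual herbicidal score 0–5 at ~15 days after treatment.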

[2] = tested on: Echinochloa oryzicola (barnyard grass); assay: as above; conditions: 500 g a.i/ha, pre-emergence treatment, about 15 days after treatment, score 0-5
Summary of the method: as §1

[3] = tested on: Eleocharis acicularis (needle spikerush); assay: as above; conditions: 500 g a.i/ha, pre-emergence treatment, about 15 days after treatment, score 0-5
Summary of the method: as §1

[4] = tested on: Monochoria vaginalis (monochoria); assay: as above; conditions: 500 g a.i/ha, pre-emergence treatment, about 15 days after treatment, score 0-5
Summary of the method: as §1

[5] = tested on: Scirpus juncoides (bulrush); assay: as above; conditions: 500 g a.i/ha, pre-emergence treatment, about 15 days after treatment, score 0-5
Summary of the method: as §1

[6] = tested on: other annual broad leaf weeds (Lindernia procumbens, Rotala indica, Elatine triandra); assay: as above; conditions: 500 g a.i/ha, pre-emergence treatment, about 15 days after treatment, score 0-5
Summary of the method: as §1

[7] = tested on: Amaranthus viridis (green amaranthus); assay: Test Example-2: herbicidal effect by a soil treatment before weeds are generated under upland field conditions; conditions: application amount 500 g a.i/ha, soil spray treatment before weeds are generated, about 21 days after the treatment, score 0 to 5
Summary of the method: (§2)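 Pre-emergence soil treatment: seeds sown in upland soil and covered with about 0.5 cm soil were sprayed the next day with diluted wettable powder or emulsifiable concentrate at a predetermined dosage. Weed control and corn injury were scored on a 0–5 scale about 21 days after treatment.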

[8] = tested on: Chenopodium album (common lambsquarters); assay: as above; conditions: application amount 500 g a.i/ha, soil spray treatment before weeds are generated, about 21 days after the treatment, score 0 to 5
Summary of the method: as §2

corn [9] = assay: Test Example-2: phytotoxicity by a soil treatment before weeds are generated under upland field conditions; conditions: application amount 500 g a.i/ha, soil spray treatment before weeds are generated, about 21 days after the treatment, score 0 to 5
Summary of the method: as §2

[10] = tested on: Abutilon theophrasti (velvetleaf); assay: Test Example-3: herbicidal effect by a treatment before weeds are generated under upland field conditions; conditions: upland soil treatment before emergence, about 21 days after treatment, score 0-5
Description: (§3) Using the formulation prepared according to the methods described above, the herbicidal effect of the bicyclic pyrazolinone derivative of the invention according to the methods shown in Test Examples below was examined. The herbicidal effect with respect to the test weeds or the phytotoxicity with respect to the test crops was examined according to the following criteria, and evaluated in six stage scores of 0 to 5. A vat having an area of 81 cm^2 and a depth of 3.5 cm was filled with upland soil, then, seeds of Ipomoea purpurea (tall morning glory), Amaranthus viridis (green amaranthus), Abutilon theophrasti (velvetleaf), Chenopodium album (common lambsquarters), and corn were seeded thereto, and the seeds were covered with soil of about 0.5 cm. Next day, a wettable powder or an emulsifiable concentrate of the compound of the present invention prepared according to Formulation Example was diluted, and a spray treatment was uniformly performed on the covered oil so as to be a predetermined dosage. The herbicidal effect with respect to the test weeds and the phytotoxicity with respect to corn about 21 days after the treatment were evaluated according to the evaluation criteria in six stages of 0 to 5 described above.

[11] = tested on: Amaranthus viridis (green amaranthus); assay: as above; conditions: upland soil treatment before emergence, about 21 days after treatment, score 0-5
Description: as §3

[12] = tested on: Chenopodium album (common lambsquarters); assay: as above; conditions: upland soil treatment before emergence, about 21 days after treatment, score 0-5
Description: as §3

[13] = tested on: Ipomoea purpurea (tall morning glory); assay: as above; conditions: upland soil treatment before emergence, about 21 days after treatment, score 0-5
Description: as §3

corn [14] = assay: Test Example-3: phytotoxicity by a treatment before weeds are generated under upland field conditions; conditions: upland soil treatment before emergence, about 21 days after treatment, score 0-5
Description: as §3

[15] = tested on: Abutilon theophrasti (velvetleaf); assay: Test Example-4: herbicidal effect by a foliage treatment after weeds are generated under upland field conditions; conditions: 500 g a.i/ha, foliage treatment after emergence, about 14 days after treatment, score 0-5
Summary of the method: (§4)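 Upland soil; seeds covered ~0.5 cm, grown 14 d. Foliar spray of diluted WP or EC, predetermined dose, 4000 L water/ha. Herbicidal effect and corn phytotoxicity scored on a six-stage 0–5 scale ~14 d post-treatment.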

[16] = tested on: Amaranthus viridis (green amaranthus); assay: as above; conditions: 500 g a.i/ha, foliage treatment after emergence, about 14 days after treatment, score 0-5
Summary of the method: as §4

[17] = tested on: Chenopodium album (common lambsquarters); assay: as above; conditions: 500 g a.i/ha, foliage treatment after emergence, about 14 days after treatment, score 0-5
Summary of the method: as §4

corn [18] = assay: Test Example-4: phytotoxicity by a foliage treatment after weeds are generated under upland field conditions; conditions: 500 g a.i/ha, foliage treatment after emergence, about 14 days after treatment, score 0-5
Summary of the method: as §4

[19] = tested on: Abutilon theophrasti (velvetleaf); assay: Test Example-5: herbicidal effect by a foliage treatment after weeds are generated under upland field conditions; conditions: foliage treatment after emergence, about 14 days after treatment, score 0-5
Description: as §3, with “While watering was suitably performed on there, the seeds were grown for 14 days. A” for “Next day, a”, “foliage portion of the plant” for “covered oil”, “dosage in the amount of water of 4000 L per hectare.” for “dosage.”, “14” for “21”

[20] = tested on: Amaranthus viridis (green amaranthus); assay: as above; conditions: foliage treatment after emergence, about 14 days after treatment, score 0-5
Description: as §3, with “While watering was suitably performed on there, the seeds were grown for 14 days. A” for “Next day, a”, “foliage portion of the plant” for “covered oil”, “dosage in the amount of water of 4000 L per hectare.” for “dosage.”, “14” for “21”

[21] = tested on: Chenopodium album (common lambsquarters); assay: as above; conditions: foliage treatment after emergence, about 14 days after treatment, score 0-5
Description: as §3, with “While watering was suitably performed on there, the seeds were grown for 14 days. A” for “Next day, a”, “foliage portion of the plant” for “covered oil”, “dosage in the amount of water of 4000 L per hectare.” for “dosage.”, “14” for “21”

[22] = tested on: Ipomoea purpurea (tall morning glory); assay: as above; conditions: foliage treatment after emergence, about 14 days after treatment, score 0-5
Description: as §3, with “While watering was suitably performed on there, the seeds were grown for 14 days. A” for “Next day, a”, “foliage portion of the plant” for “covered oil”, “dosage in the amount of water of 4000 L per hectare.” for “dosage.”, “14” for “21”

corn [23] = assay: Test Example-5: phytotoxicity by a foliage treatment after weeds are generated under upland field conditions; conditions: foliage treatment after emergence, about 14 days after treatment, score 0-5
Description: as §3, with “While watering was suitably performed on there, the seeds were grown for 14 days. A” for “Next day, a”, “foliage portion of the plant” for “covered oil”, “dosage in the amount of water of 4000 L per hectare.” for “dosage.”, “14” for “21”

C#CCOc1cc(-c2c(Cl)n3n(c2=O)CCOCC3)c(Cl)cc1Cl [Example 1-306]
Herbicidal effect Cyperus difformis [1]: 5 (Herbicidal effect/phytotoxicity was 90% or greater) | Herbicidal effect Echinochloa oryzicola [2]: 5 (Herbicidal effect/phytotoxicity was 90% or greater) | Herbicidal effect Eleocharis acicularis [3]: 5 (Herbicidal effect/phytotoxicity was 90% or greater) | Herbicidal effect Monochoria vaginalis [4]: 5 (Herbicidal effect/phytotoxicity was 90% or greater) | Herbicidal effect Scirpus juncoides [5]: 5 (Herbicidal effect/phytotoxicity was 90% or greater) | Herbicidal effect Broadleaf weed [6]: 5 (Herbicidal effect/phytotoxicity was 90% or greater) | Herbicidal effect Amaranthus viridis [7]: 5 (Herbicidal effect/phytotoxicity was 90% or greater) | Herbicidal effect Chenopodium album [8]: 5 (Herbicidal effect/phytotoxicity was 90% or greater) | Phytotoxicity Corn (corn [9]): 1 (Herbicidal effect/phytotoxicity was 10% to 30%) | Herbicidal effect Abutilon theophrast ([10]; 50 g a.i/ha): 3 (Herbicidal effect/phytotoxicity was 50% to 70%) | Herbicidal effect Abutilon theophrast ([10]; 100 g a.i/ha): 4 (Herbicidal effect/phytotoxicity was 70% to 90%) | Herbicidal effect Amaranthus viridis ([11]; 50 g a.i/ha): 5 (Herbicidal effect/phytotoxicity was 90% or greater) | Herbicidal effect Amaranthus viridis ([11]; 100 g a.i/ha): 5 (Herbicidal effect/phytotoxicity was 90% or greater) | Herbicidal effect Chenopodium album ([12]; 50 g a.i/ha): 5 (Herbicidal effect/phytotoxicity was 90% or greater) | Herbicidal effect Chenopodium album ([12]; 100 g a.i/ha): 5 (Herbicidal effect/phytotoxicity was 90% or greater) | Herbicidal effect Ipomoea purpurea ([13]; 50 g a.i/ha): 4 (Herbicidal effect/phytotoxicity was 70% to 90%) | Herbicidal effect Ipomoea purpurea ([13]; 100 g a.i/ha): 5 (Herbicidal effect/phytotoxicity was 90% or greater) | Phytotoxicity Corn (corn [14]; 50 g a.i/ha): 0 (Herbicidal effect/phytotoxicity was 0% to 10%) | Phytotoxicity Corn (corn [14]; 100 g a.i/ha): 1 (Herbicidal effect/phytotoxicity was 10% to 30%) | Herbicidal effect Abutilon theophrast [15]: 5 (Herbicidal effect/phytotoxicity was 90% or greater) | Herbicidal effect Amaranthus viridis [16]: 5 (Herbicidal effect/phytotoxicity was 90% or greater) | Herbicidal effect Chenopodium album [17]: 5 (Herbicidal effect/phytotoxicity was 90% or greater) | Phytotoxicity Corn (corn [18]): 1 (Herbicidal effect/phytotoxicity was 10% to 30%) | Herbicidal effect Abutilon theophrasti ([19]; 12.5 g a.i/ha): 5 (Herbicidal effect/phytotoxicity was 90% or greater) | Herbicidal effect Abutilon theophrasti ([19]; 25 g a.i/ha): 5 (Herbicidal effect/phytotoxicity was 90% or greater) | Herbicidal effect Amaranthus viridis ([20]; 12.5 g a.i/ha): 5 (Herbicidal effect/phytotoxicity was 90% or greater) | Herbicidal effect Amaranthus viridis ([20]; 25 g a.i/ha): 5 (Herbicidal effect/phytotoxicity was 90% or greater) | Herbicidal effect Chenopodium album ([21]; 12.5 g a.i/ha): 5 (Herbicidal effect/phytotoxicity was 90% or greater) | Herbicidal effect Chenopodium album ([21]; 25 g a.i/ha): 5 (Herbicidal effect/phytotoxicity was 90% or greater) | Herbicidal effect Ipomoea purpurea ([22]; 12.5 g a.i/ha): 5 (Herbicidal effect/phytotoxicity was 90% or greater) | Herbicidal effect Ipomoea purpurea ([22]; 25 g a.i/ha): 5 (Herbicidal effect/phytotoxicity was 90% or greater) | Phytotoxicity Corn (corn [23]; 12.5 g a.i/ha): 0 (Herbicidal effect/phytotoxicity was 0% to 10%) | Phytotoxicity Corn (corn [23]; 25 g a.i/ha): 0 (Herbicidal effect/phytotoxicity was 0% to 10%)
